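All cell lines were grown in 96-well plates and treated with compound for 48 hours. GI50: concentration for 50% inhibition of growth. TGI denotes the concentration required for complete inhibition of growth.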
What was measured:
Assay in all cases: growth of human tumour cells (NCI), 48 h
SNB-75 CNS = test system: SNB-75 CNS
NCI-H460 lung = test system: NCI-H460 lung
RPMI-8226 leukemia = test system: RPMI-8226 leukemia
SK-MEL-28 melanoma = test system: SK-MEL-28 melanoma
HCT-15 colon = test system: HCT-15 colon
HL-60(TB) leukemia = test system: HL-60(TB) leukemia
SW-620 colon = test system: SW-620 colon
M14 melanoma = test system: M14 melanoma
OVCAR-3 ovarian = test system: OVCAR-3 ovarian
HS 578T breast = test system: HS 578T breast

Row | Compound | TGI (SNB-75 CNS) [µM] | TGI (NCI-H460 lung) [µM] | TGI (RPMI-8226 leukemia) [µM] | TGI (SK-MEL-28 melanoma) [µM] | TGI (HCT-15 colon) [µM] | TGI (HL-60(TB) leukemia) [µM] | TGI (SW-620 colon) [µM] | TGI (M14 melanoma) [µM] | TGI (OVCAR-3 ovarian) [µM] | TGI (HS 578T breast) [µM] | GI50 (HCT-15 colon) [µM] | GI50 (SW-620 colon) [nM] | GI50 (M14 melanoma) [µM] | GI50 (OVCAR-3 ovarian) [nM] | GI50 (HS 578T breast) [nM] | GI50 (SNB-75 CNS) [nM] | GI50 (NCI-H460 lung) [µM] | GI50 (RPMI-8226 leukemia) [µM] | GI50 (SK-MEL-28 melanoma) [µM] | GI50 (HL-60(TB) leukemia) [µM]
1 | CN(C)C(=N/O)/C(=N\O)N(C)C | > 100 | > 100 | > 100 | > 100 | > 100 | > 100 | > 100 | > 100 |  |  |  |  |  |  |  |  |  |  |  | 
2 | O=C(/C=C/c1ccccc1F)c1ccc(Cl)c(Cl)c1 | 98.5 | > 100 | > 75.6 | > 100 | > 87 | 51.4 | > 66.3 | > 100 | > 71.6 |  |  |  |  |  |  |  |  |  |  | 
3 | O=C1CC(c2cccc(F)c2)Nc2cc3c(cc21)OCO3 (configuration not stated) |  |  | 0.162 |  | > 100 |  | > 100 | > 100 | > 100 | > 100 | < 0.01 | < 10 | < 0.01 | < 10 |  |  |  |  |  | 
4 | NC(=O)c1cc([N+](=O)[O-])c(Cl)c([N+](=O)[O-])c1Cl | 3.69 | 3.49 | 3.61 | 3.15 | 3.25 |  | 1.07 |  | 2.35 | 4.98 | 0.458 | 291 |  | 1140 | 1980 | 1770 | 1.74 | 0.661 | 1.74 | 
5 | CC(=O)c1c2c(cc3c1CC1(C3)Cc3cc4c(c(C(C)=O)c3C1)CCC4)CCC2 | > 100 | > 100 |  | > 100 |  | > 100 | > 100 | > 100 | > 100 |  |  |  |  |  |  |  |  |  |  | 
6 | N#C/C(=C/c1ccc2c(c1)OCO2)C(=O)c1ccccc1 | > 100 | > 100 | > 100 | > 100 | > 100 |  | > 100 | > 100 | > 100 |  |  |  |  |  |  |  |  |  |  | 
7 | N/C(=N\N=C\c1ccc(C(F)(F)F)cc1)NO | > 100 | > 100 |  | > 100 |  | 46.3 | > 100 | 29.2 | 62.9 |  |  |  |  |  |  |  |  |  |  | 
8 | CCc1cccc(C)c1NC(=O)C(=O)CC(=O)c1ccc(Cl)s1 | > 100 | > 100 |  | > 100 | > 100 | > 100 | > 100 | > 100 |  |  |  |  |  |  |  |  |  |  |  | 
9 | O=C(Nc1ccccc1)Nc1ccc2cc3ccc(NC(=O)Nc4ccccc4)cc3nc2c1 | 3.73 | > 100 | > 100 | 3.22 | > 100 |  | 1.19 |  | 2.45 | 3.47 | 37.2 | 331 |  | 1100 | 1530 | 1970 | 3.95 | 5.42 | 1.82 | 
10 | CC1=C(c2ccccc2)C(O)(c2ccccc2)C(C)C1=O (configuration not stated) | 42.8 | > 100 |  | > 100 | > 100 | 87.4 | > 100 | 33.7 | > 100 |  | 31.4 | 6180 | 4.72 | 16500 |  | 10700 | 25.1 |  | 25.5 | 16.6
11 | COC(=O)N/N=C(\C)c1c(O)cc(C)oc1=O | > 100 | > 100 |  | > 100 | > 100 | > 100 | > 100 | > 100 |  |  |  |  |  |  |  |  |  |  |  | 
12 | c1ccc(C2OC3(CCC[C@H]4C[C@H]43)O[C@H]2c2ccccc2)cc1 (some centres not stated) | 91.9 | > 100 | 96.9 |  | > 100 | 41.1 | > 100 | > 100 | > 100 |  |  |  |  |  |  |  |  |  |  | 
13 | COc1ccc2c(c1OC)CO[C@@H]2[C@H]1c2c(cc3c(c2OC)OCO3)CCN1S(=O)(=O)c1cn(C)cn1 | > 100 | 26.8 | 30.2 | > 100 | > 100 | 4.9 | > 100 | > 100 | 4.83 |  | 0.722 | 1200 | 0.513 | 1590 |  | 1600 | 2.87 | 2.48 | 5.4 | 1.66
14 | CC(=O)[O-].Cn1ccnc1CNCc1nccn1C.[Cu+2].[O-][Cl+3]([O-])([O-])[O-] | > 100 | > 100 | > 100 | > 100 |  | > 100 | > 100 | > 100 | > 100 |  |  | > 100000 | > 100 | > 100000 |  | > 100000 | 51.2 | > 100 | > 100 | > 100
15 | COC(=O)C1=C(O)[C@H](C(=O)OC)C2(O)C(C(=O)OC)[C@H](c3ccc(OC(=O)C(C)c4ccc(CC(C)C)cc4)cc3)C[C@@H]1[C@@H]2C(=O)OC (some centres not stated) |  | > 50 | > 50 | 40.8 | > 50 |  | > 50 | > 50 | > 50 | > 50 | 12.9 | 18100 | 25.3 | > 50000 | 33000 |  | 13.2 | 4.62 | 12.6 | 
16 | CC1=C(/C=C/C(C)=C/C2CC(N(C)C)=CC(=O)O2)C(C)(C)CCC1 (configuration not stated) | 32.4 | 42.4 | 19.3 | 30.9 |  | 16 | 31.1 | 28.3 | 23.7 |  |  |  |  |  |  |  |  |  |  | 
17 | O=C1C(c2ccc(Br)cc2)=[N+]([O-])c2ccccc21 | 31.4 | 34.8 | > 100 | 35.2 | 23.7 | 12.4 | 41.5 | 29.8 | 28.2 |  |  |  |  |  |  |  |  |  |  | 
18 | Cc1cc2c(C)n(Cc3ccccc3Cl)nc2c(C(=O)O)c1C | > 100 | > 100 | > 100 | > 100 | > 100 | > 100 | > 100 |  | > 100 |  |  |  |  |  |  |  |  |  |  | 
19 | O=[N+]([O-])C(/C=N/Nc1ccccc1)/C=N/Nc1ccccc1 | > 100 | > 100 |  | > 100 | > 100 | > 100 | > 100 | > 100 | > 100 |  |  |  |  |  |  |  |  |  |  | 
20 | O=C1/C=C(/c2ccc(O)cc2)[C@@H](O)Cc2ccc(O)cc2O1 |  | > 100 |  |  | > 100 |  | > 100 | > 100 | > 100 |  |  |  |  |  |  |  |  |  |  | 
